Experiment: Stability comparison between crystalline form and amorphous form (storage 72 h at 70° C.)
Type: physicochemical
Conditions: for content, starting value / sum of all by-products, starting value: before storage

| SMILES | content after 72 h at 70° C. [% by weight] | sum of all by-products after 72 h at 70° C. | content, starting value [% by weight] | sum of all by-products, starting value [%] |
| --- | --- | --- | --- | --- |
| C[C@@H](O)[C@H]1C(=O)N2C(C(=O)OCc3ccc([N+](=O)[O-])cc3)=C(S[C@H]3C[C@@H](C(=O)N(C)C)N(C(=O)OCc4ccc([N+](=O)[O-])cc4)C3)[C@H](C)[C@H]12 [Compound of formula I in amorphous form, (4R,5S,6S)-(p-nitrobenzyl) 3-[[(3S,5S)-1(-p-nitrobenzyloxycarbonyl)-5-(dimethylaminocarbonyl)-3-pyrrolidinyl]thio]-6-[(1R)-1-hydroxyethyl]-4-methyl-7-oxo-1-azabicyclo[3.2.0]hept-2-ene-2-carboxylate] | 90.8 | sum of all by-products 5.7% | 92.4 | 2.5 |
| C[C@@H](O)[C@H]1C(=O)N2C(C(=O)OCc3ccc([N+](=O)[O-])cc3)=C(S[C@H]3C[C@@H](C(=O)N(C)C)N(C(=O)OCc4ccc([N+](=O)[O-])cc4)C3)[C@H](C)[C@H]12 [Compound of formula I in crystalline form] [(4R,5S,6S)-(p-nitrobenzyl) 3-[[(3S,5S)-1(-p-nitrobenzyloxycarbonyl)-5-(dimethylaminocarbonyl)-3-pyrrolidinyl]thio]-6-[(1R)-1-hydroxyethyl]-4-methyl-7-oxo-1-azabicyclo[3.2.0]hept-2-ene-2-carboxylate] | 99.1 | <0.3% | 99.4 | <0.3 |

— patent publication US20070249827A1, “Meropenem Intermediatein in Crystalling Form” (SANDOZ AG, priority 2004, published 2007)
